Consider 28 molecules from patent US11446287B2, “Compounds and methods for EP300 or CBP modulation and indications therefor” (Opna Immuno-Oncology SA, priority 2019, dated 2022).

The experiment deals with T1, Recombinant human CBP containing the bromodomain (CBP-BD (1043-1159)) (Homo sapiens, UniProt Q92793).
T1 construct: Recombinant human CBP bromodomain (CBP-BD (1043-1159)); made in house; host or cells: E. coli BL21-CodonPlus (DE3), modified pET vector
The experiment is described as follows: CBP Alphascreen binding assay. Particulars: read-out: CREBBP (CBP) IC50. Summed up: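 Buffer: 50 mM HEPES pH 7.5, 50 mM NaCl, 0.01% BSA, 0.01% Triton X-100, 2 mM DTT. The signal was normalised to plate controls and fitted with a four-parameter curve to give IC50.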
(Bead proximity is the source of the signal in Alpha formats.)

pIC50: −log10 of the molar value.

Usually pIC50 stands for −log10 of the IC50, conventionally taken in molar units.

T1 sequence (Q92793 1081-1197): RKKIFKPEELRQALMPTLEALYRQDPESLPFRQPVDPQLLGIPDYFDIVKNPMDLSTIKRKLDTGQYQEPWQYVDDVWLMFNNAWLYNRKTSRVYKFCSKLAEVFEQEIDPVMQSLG

As for `Cc1noc(C)c1-c1cnc2c(c1)c(-c1ccc(C(=O)O)cc1OC(F)(F)F)cn2-c1ncccc1C#N` [P-0215, 4-(1-(3-cyanopyridin-2-yl)-5-(3,5-dimethylisoxazol-4-yl)-1H-pyrrolo[2,3-b]pyridin-3-yl)-3-(trifluoromethoxy)benzoic acid], the negative logarithm of the IC50 (pIC50) was 6.00 to 10.00. To `Cc1noc(C)c1-c1cnc2c(c1)c(-c1ccc(C(=O)O)cc1OC(F)(F)F)cn2-c1ncccc1C#CC1CC1` [P-0216, 4-(1-(3-(cyclopropylethynyl)pyridin-2-yl)-5-(3,5-dimethylisoxazol-4-yl)-1H-pyrrolo[2,3-b]pyridin-3-yl)-3-(trifluoromethoxy)benzoic acid] belongs 6.00 to 10.00.

In the case of `CCOc1cc(C(=O)O)cc(OCC)c1-n1cc(-c2ccc(C#N)cc2F)c2ncc(-c3c(C)noc3C)cc21` [P-0217, 4-(3-(4-cyano-2-fluorophenyl)-6-(3,5-dimethylisoxazol-4-yl)-1H-pyrrolo[3,2-b]pyridin-1-yl)-3,5-diethoxybenzoic acid], the pIC50 is 6.00 to 10.00. For the molecule `CCOc1cc(C(=O)O)cc(OCC)c1-n1cc(-c2ccc(C(=O)NC3CC3)cc2)c2ncc(-c3c(C)noc3C)cc21` [P-0218, 4-(3-(4-(cyclopropylcarbamoyl)phenyl)-6-(3,5-dimethylisoxazol-4-yl)-1H-pyrrolo[3,2-b]pyridin-1-yl)-3,5-diethoxybenzoic acid], the pIC50 is 6.00 to 10.00. On to `COC(=O)c1cc(OC)c(-n2cc(-c3ccccc3)c3ncc(-c4c(C)noc4C)cc32)c(OC)c1` [P-0219, methyl 4-(6-(3,5-dimethylisoxazol-4-yl)-3-phenyl-1H-pyrrolo[3,2-b]pyridin-1-yl)-3,5-dimethoxybenzoate], for which the pIC50 is 6.00 to 10.00.

In the case of `COc1cc(C(=O)O)cc(OC)c1-n1cc(-c2ccccc2)c2ncc(-c3c(C)noc3C)cc21` [P-0220, 4-(6-(3,5-dimethylisoxazol-4-yl)-3-phenyl-1H-pyrrolo[3,2-b]pyridin-1-yl)-3,5-dimethoxybenzoic acid], the pIC50 is 6.00 to 10.00.

Turning to `COc1cccc(OC)c1-n1cc(-c2ccccc2)c2ncc(-c3c(C)noc3C)cc21` [P-0221, 4-(1-(2,6-dimethoxyphenyl)-3-phenyl-1H-pyrrolo[3,2-b]pyridin-6-yl)-3,5-dimethylisoxazole], the negative-log IC50 (pIC50) was 5.10 to 6.00. To `CCOc1cc(C(=O)O)cc(OCC)c1-n1cc(-c2ccnc(F)c2)c2ncc(-c3c(C)noc3C)cc21` [P-0222, 4-(6-(3,5-dimethylisoxazol-4-yl)-3-(2-fluoropyridin-4-yl)-1H-pyrrolo[3,2-b]pyridin-1-yl)-3,5-diethoxybenzoic acid] belongs 6.00 to 10.00; to `Cc1noc(C)c1-c1cnc2c(c1)c(-c1ccc(C(=O)O)cc1OC(F)(F)F)cn2-c1ccccc1F` [P-0223, 4-(5-(3,5-dimethylisoxazol-4-yl)-1-(2-fluorophenyl)-1H-pyrrolo[2,3-b]pyridin-3-yl)-3-(trifluoromethoxy)benzoic acid], 6.00 to 10.00; to `CCOc1cccc(Cl)c1-n1cc(-c2ccccc2)c2ncc(-c3c(C)noc3C)cc21` [P-0224, 4-(1-(2-chloro-6-ethoxyphenyl)-3-phenyl-1H-pyrrolo[3,2-b]pyridin-6-yl)-3,5-dimethylisoxazole], 5.10 to 6.00. As for `CCOc1ccc(C(=O)O)cc1-n1cc(-c2ccccc2)c2ncc(-c3c(C)noc3C)cc21` [P-0225, 3-(6-(3,5-dimethylisoxazol-4-yl)-3-phenyl-1H-pyrrolo[3,2-b]pyridin-1-yl)-4-ethoxybenzoic acid], the pIC50 was 6.00 to 10.00.

Turning to `Cc1noc(C)c1-c1cnc2c(c1)c(-c1ccc(C(=O)O)cc1OC(F)(F)F)cn2C1CCOCC1` [P-0226, 4-(5-(3,5-dimethylisoxazol-4-yl)-1-(tetrahydro-2H-pyran-4-yl)-1H-pyrrolo[2,3-b]pyridin-3-yl)-3-(trifluoromethoxy)benzoic acid], the pIC50 is 6.00 to 10.00.

`Cc1noc(C)c1-c1cnc2c(c1)c(-c1ccc(C(=O)O)cc1OC(F)(F)F)cn2C1CCC(F)(F)CC1` [P-0227, 4-(1-(4,4-difluorocyclohexyl)-5-(3,5-dimethylisoxazol-4-yl)-1H-pyrrolo[2,3-b]pyridin-3-yl)-3-(trifluoromethoxy)benzoic acid]: the pIC50 is 6.00 to 10.00. As for `Cc1noc(C)c1-c1cnc2c(c1)c(-c1ccc(C(=O)O)cc1OC(F)(F)F)c(C)n2-c1ccccn1` [P-0228, 4-(5-(3,5-dimethylisoxazol-4-yl)-2-methyl-1-(pyridin-2-yl)-1H-pyrrolo[2,3-b]pyridin-3-yl)-3-(trifluoromethoxy)benzoic acid], the figure is 6.00 to 10.00; as for `Cc1noc(C)c1-c1cnc2c(-c3ccc(F)cc3F)cn(-c3ccc(C(=O)O)cc3OC(F)(F)F)c2c1` [P-0229, 4-(3-(2,4-difluorophenyl)-6-(3,5-dimethylisoxazol-4-yl)-1H-pyrrolo[3,2-b]pyridin-1-yl)-3-(trifluoromethoxy)benzoic acid], 6.00 to 10.00; as for `Cc1noc(C)c1-c1cnc2c(c1)c(-c1c(F)cc(C(=O)O)cc1OC(F)(F)F)cn2C(C1CC1)C1CC1` [P-0230, 4-(1-(dicyclopropylmethyl)-5-(3,5-dimethylisoxazol-4-yl)-1H-pyrrolo[2,3-b]pyridin-3-yl)-3-fluoro-5-(trifluoromethoxy)benzoic acid], 6.00 to 10.00. Consider `Cc1ccccc1-n1cc(-c2ccc(C(=O)O)cc2OC(F)(F)F)c2cc(-c3c(C)noc3C)cnc21` [P-0231, 4-(5-(3,5-dimethylisoxazol-4-yl)-1-(o-tolyl)-1H-pyrrolo[2,3-b]pyridin-3-yl)-3-(trifluoromethoxy)benzoic acid], for which the negative-log IC50 (pIC50) is 6.00 to 10.00. To `Cc1noc(C)c1-c1cnc2c(c1)c(-c1ccc(C(=O)O)cc1OC(F)(F)F)cn2-c1ccc(F)cc1F` [P-0232, 4-(1-(2,4-difluorophenyl)-5-(3,5-dimethylisoxazol-4-yl)-1H-pyrrolo[2,3-b]pyridin-3-yl)-3-(trifluoromethoxy)benzoic acid] belongs 6.00 to 10.00.

`Cc1noc(C)c1-c1cnc2c(c1)c(-c1ccc(C(=O)O)cc1OC(F)(F)F)cn2-c1cc(F)ccc1F` [P-0233, 4-(1-(2,5-difluorophenyl)-5-(3,5-dimethylisoxazol-4-yl)-1H-pyrrolo[2,3-b]pyridin-3-yl)-3-(trifluoromethoxy)benzoic acid]: the pIC50 is 6.00 to 10.00. As to `Cc1noc(C)c1-c1cnc2c(-c3ccc(C(=O)O)cc3F)c(C(F)(F)F)n([C@@H](C)c3ccccn3)c2c1` [P-0234, (S)-4-(6-(3,5-dimethylisoxazol-4-yl)-1-(1-(pyridin-2-yl)ethyl)-2-(trifluoromethyl)-1H-pyrrolo[3,2-b]pyridin-3-yl)-3-fluorobenzoic acid], the pIC50 is 6.00 to 10.00.

Take `Cc1cc(C(=O)O)ccc1-c1c(C(F)(F)F)n([C@@H](C)c2ccccn2)c2cc(-c3c(C)noc3C)cnc12` [P-0235, (S)-4-(6-(3,5-dimethylisoxazol-4-yl)-1-(1-(pyridin-2-yl)ethyl)-2-(trifluoromethyl)-1H-pyrrolo[3,2-b]pyridin-3-yl)-3-methylbenzoic acid]: the pIC50 is 6.00 to 10.00. Consider `COc1cc(C(=O)O)ccc1-c1c(C(F)(F)F)n([C@@H](C)c2ccccn2)c2cc(-c3c(C)noc3C)cnc12` [P-0236, (S)-4-(6-(3,5-dimethylisoxazol-4-yl)-1-(1-(pyridin-2-yl)ethyl)-2-(trifluoromethyl)-1H-pyrrolo[3,2-b]pyridin-3-yl)-3-methoxybenzoic acid], for which the pIC50 is 6.00 to 10.00. As for `Cc1noc(C)c1-c1cnc2c(-c3cn(C)nc3C3CC3)c(C(F)(F)F)n([C@@H](C)c3ccccn3)c2c1` [P-0237, (S)-4-(3-(3-cyclopropyl-1-methyl-1H-pyrazol-4-yl)-1-(1-(pyridin-2-yl)ethyl)-2-(trifluoromethyl)-1H-pyrrolo[3,2-b]pyridin-6-yl)-3,5-dimethylisoxazole], the figure is 6.00 to 10.00; as for `Cc1noc(C)c1-c1cnc2c(-c3cc(C(=O)O)ccc3F)c(C(F)(F)F)n([C@@H](C)c3ccccn3)c2c1` [P-0238, (S)-3-(6-(3,5-dimethylisoxazol-4-yl)-1-(1-(pyridin-2-yl)ethyl)-2-(trifluoromethyl)-1H-pyrrolo[3,2-b]pyridin-3-yl)-4-fluorobenzoic acid], 6.00 to 10.00. As for `COc1ccc(C(=O)O)cc1-c1c(C(F)(F)F)n([C@@H](C)c2ccccn2)c2cc(-c3c(C)noc3C)cnc12` [P-0239, (S)-3-(6-(3,5-dimethylisoxazol-4-yl)-1-(1-(pyridin-2-yl)ethyl)-2-(trifluoromethyl)-1H-pyrrolo[3,2-b]pyridin-3-yl)-4-methoxybenzoic acid], the figure is 5.10 to 6.00; as for `Cc1noc(C)c1-c1cnc2c(-c3cc(F)cc(C(=O)O)c3)c(C(F)(F)F)n([C@@H](C)c3ccccn3)c2c1` [P-0240, (S)-3-(6-(3,5-dimethylisoxazol-4-yl)-1-(1-(pyridin-2-yl)ethyl)-2-(trifluoromethyl)-1H-pyrrolo[3,2-b]pyridin-3-yl)-5-fluorobenzoic acid], 6.00 to 10.00; as for `Cc1noc(C)c1-c1cnc2c(-c3cc(Cl)cc(C(=O)O)c3)c(C(F)(F)F)n([C@@H](C)c3ccccn3)c2c1` [P-0241, (S)-3-chloro-5-(6-(3,5-dimethylisoxazol-4-yl)-1-(1-(pyridin-2-yl)ethyl)-2-(trifluoromethyl)-1H-pyrrolo[3,2-b]pyridin-3-yl)benzoic acid], 6.00 to 10.00.

As to `Cc1noc(C)c1-c1cnc2c(-c3ccc(C(=O)O)c(F)c3)c(C(F)(F)F)n([C@@H](C)c3ccccn3)c2c1` [P-0242, (S)-4-(6-(3,5-dimethylisoxazol-4-yl)-1-(1-(pyridin-2-yl)ethyl)-2-(trifluoromethyl)-1H-pyrrolo[3,2-b]pyridin-3-yl)-2-fluorobenzoic acid], the pIC50 was 5.10 to 6.00.
